In ChEMBL document CHEMBL2390917, “Synthesis and biological evaluation of 2-(5-methyl-4-phenyl-2-oxopyrrolidin-1-yl)-acetamide stereoisomers as novel positive allosteric modulators of sigma-1 receptor” (Bioorg Med Chem, 2013):
Activity calls are given as the source filed them. No cut-off for these calls is given here.

What was measured:
Homo sapiens [1] = species on record: Homo sapiens; assay: Binding affinity to human TNFalpha receptor at 10 uM by radioligand displacement assay relative to control
[2] = target: C-X-C chemokine receptor type 2 (Homo sapiens) (UniProt P25025); assay: Binding affinity to human CXCR2 at 10 uM by radioligand displacement assay relative to control
[3] = target: Platelet-derived growth factor receptor (Homo sapiens) (UniProt P09619+P16234); assay: Binding affinity to PDGF receptor (unknown origin) at 10 uM by radioligand displacement assay relative to control; format: protein-complex assay
Homo sapiens [4] = species on record: Homo sapiens; assay: Binding affinity to GABA receptor (unknown origin) at 10 uM by radioligand displacement assay relative to control
[5] = target: D(1B) dopamine receptor (Homo sapiens) (UniProt P21918); assay: Binding affinity to human dopamine D5 receptor at 10 uM by radioligand displacement assay relative to control
D(1B) dopamine receptor (Homo sapiens), sequence (P21918 whole entry): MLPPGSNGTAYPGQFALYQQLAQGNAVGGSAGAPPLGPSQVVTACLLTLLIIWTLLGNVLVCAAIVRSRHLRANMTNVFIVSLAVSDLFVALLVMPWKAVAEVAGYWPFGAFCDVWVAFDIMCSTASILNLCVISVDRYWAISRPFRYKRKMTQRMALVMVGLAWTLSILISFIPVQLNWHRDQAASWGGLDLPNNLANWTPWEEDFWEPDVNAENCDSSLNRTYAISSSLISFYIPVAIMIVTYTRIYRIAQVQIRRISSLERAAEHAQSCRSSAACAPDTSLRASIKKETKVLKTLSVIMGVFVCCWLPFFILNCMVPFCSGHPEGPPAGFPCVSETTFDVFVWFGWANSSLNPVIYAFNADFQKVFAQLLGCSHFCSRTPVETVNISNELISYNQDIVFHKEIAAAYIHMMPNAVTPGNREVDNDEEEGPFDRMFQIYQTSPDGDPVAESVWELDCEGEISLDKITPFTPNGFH

[6] = target: D(2) dopamine receptor (Homo sapiens) (UniProt P14416); assay: Binding affinity to human dopamine D2S receptor at 10 uM by radioligand displacement assay relative to control
D(2) dopamine receptor (Homo sapiens), sequence (P14416 whole entry): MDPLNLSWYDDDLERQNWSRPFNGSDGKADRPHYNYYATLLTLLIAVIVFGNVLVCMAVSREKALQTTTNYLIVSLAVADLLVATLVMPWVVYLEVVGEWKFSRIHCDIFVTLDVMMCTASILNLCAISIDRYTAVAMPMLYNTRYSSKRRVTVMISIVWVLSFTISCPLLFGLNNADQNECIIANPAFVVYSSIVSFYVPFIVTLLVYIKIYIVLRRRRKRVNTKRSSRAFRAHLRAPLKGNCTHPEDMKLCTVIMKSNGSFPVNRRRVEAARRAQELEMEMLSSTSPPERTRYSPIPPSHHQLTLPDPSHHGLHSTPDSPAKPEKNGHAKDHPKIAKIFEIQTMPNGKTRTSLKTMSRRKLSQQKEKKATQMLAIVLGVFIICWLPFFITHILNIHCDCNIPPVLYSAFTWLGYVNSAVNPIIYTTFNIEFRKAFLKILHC

[7] = target: Cholecystokinin receptor type A (Homo sapiens) (UniProt P32238); assay: Binding affinity to human CCK1 receptor at 10 uM by radioligand displacement assay relative to control
[8] = target: Cannabinoid receptor 1 (Homo sapiens) (UniProt P21554); assay: Binding affinity to human CB1 receptor at 10 uM by radioligand displacement assay relative to control
Cannabinoid receptor 1 (Homo sapiens), sequence (P21554 whole entry): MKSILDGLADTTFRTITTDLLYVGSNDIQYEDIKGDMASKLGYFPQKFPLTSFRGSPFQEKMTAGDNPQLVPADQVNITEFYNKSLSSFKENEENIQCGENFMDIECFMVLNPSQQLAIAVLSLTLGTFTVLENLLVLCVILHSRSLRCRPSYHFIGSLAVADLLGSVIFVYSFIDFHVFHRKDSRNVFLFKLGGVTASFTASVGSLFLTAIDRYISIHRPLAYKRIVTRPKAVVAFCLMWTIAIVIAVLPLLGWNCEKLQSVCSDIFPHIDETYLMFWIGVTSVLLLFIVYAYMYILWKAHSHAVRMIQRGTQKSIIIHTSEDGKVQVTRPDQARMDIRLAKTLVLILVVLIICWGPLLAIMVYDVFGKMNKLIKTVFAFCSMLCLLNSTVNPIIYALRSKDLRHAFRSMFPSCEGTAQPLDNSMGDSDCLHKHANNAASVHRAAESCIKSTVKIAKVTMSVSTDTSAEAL

[9] = target: Calcitonin gene-related peptide type 1 receptor (Homo sapiens) (UniProt Q16602); assay: Binding affinity to human CGRP receptor at 10 uM by radioligand displacement assay relative to control
Calcitonin gene-related peptide type 1 receptor (Homo sapiens), sequence (Q16602 whole entry): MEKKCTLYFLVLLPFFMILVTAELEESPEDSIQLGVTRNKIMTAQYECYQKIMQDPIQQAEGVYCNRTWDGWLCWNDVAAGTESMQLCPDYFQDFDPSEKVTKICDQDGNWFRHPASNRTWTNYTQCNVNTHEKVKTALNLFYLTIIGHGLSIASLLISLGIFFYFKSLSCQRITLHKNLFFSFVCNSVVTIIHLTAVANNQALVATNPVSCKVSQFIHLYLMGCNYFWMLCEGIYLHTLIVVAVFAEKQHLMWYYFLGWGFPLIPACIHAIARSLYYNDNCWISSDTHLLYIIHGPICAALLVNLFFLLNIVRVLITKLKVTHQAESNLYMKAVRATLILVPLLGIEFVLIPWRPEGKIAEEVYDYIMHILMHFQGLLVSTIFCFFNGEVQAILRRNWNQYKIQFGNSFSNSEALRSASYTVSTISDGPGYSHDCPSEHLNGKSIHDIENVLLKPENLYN

[10] = target: Type-2 angiotensin II receptor (Homo sapiens) (UniProt P50052); assay: Binding affinity to human angiotensin AT2 receptor at 10 uM by radioligand displacement assay relative to control
Type-2 angiotensin II receptor (Homo sapiens), sequence (P50052 whole entry): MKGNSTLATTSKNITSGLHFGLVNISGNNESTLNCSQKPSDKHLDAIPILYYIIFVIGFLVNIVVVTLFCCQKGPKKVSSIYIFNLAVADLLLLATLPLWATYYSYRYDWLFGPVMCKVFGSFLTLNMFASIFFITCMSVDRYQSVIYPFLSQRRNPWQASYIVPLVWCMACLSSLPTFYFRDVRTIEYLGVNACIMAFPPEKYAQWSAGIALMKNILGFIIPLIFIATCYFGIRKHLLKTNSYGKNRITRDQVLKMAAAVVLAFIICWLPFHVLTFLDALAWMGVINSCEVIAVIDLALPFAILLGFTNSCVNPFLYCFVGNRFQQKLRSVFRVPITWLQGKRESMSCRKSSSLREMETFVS

[11] = target: Alpha-2A adrenergic receptor (Homo sapiens) (UniProt P08913); assay: Binding affinity to adrenergic alpha2 receptor (unknown origin) at 10 uM by radioligand displacement assay relative to control
Mus musculus [12] = assay: Toxicity in ip dosed ICR mouse assessed as effect on motor strength measured within 5 secs by traction test; format: organism-based; conditions: in vivo, 5 s
Mus musculus [13] = assay: Toxicity in ICR mouse assessed as effect on locomotor activity measured moved distance per 4 mins at 1 mg/kg, ip after 240 mins by open field test (reference value: 398 70 cm); format: organism-based; set-up: dose 1 mg/kg, route intraperitoneal; conditions: in vivo
Mus musculus [14] = assay: Toxicity in ICR mouse assessed as effect on locomotor activity measured moved distance per 4 mins at 1 mg/kg, ip after 180 mins by open field test (reference value: 436 125 cm); format: organism-based; set-up: dose 1 mg/kg, route intraperitoneal; conditions: in vivo
Mus musculus [15] = assay: Toxicity in ICR mouse assessed as effect on locomotor activity measured moved distance per 4 mins at 10 mg/kg, ip after 120 mins by open field test (reference value: 578 126 cm); format: organism-based; set-up: dose 10 mg/kg, route intraperitoneal; conditions: in vivo
Mus musculus [16] = assay: Toxicity in ICR mouse assessed as effect on locomotor activity measured moved distance per 4 mins at 10 mg/kg, ip after 60 mins by open field test (reference value: 623 136 cm); format: organism-based; set-up: dose 10 mg/kg, route intraperitoneal; conditions: in vivo
Mus musculus [17] = assay: Toxicity in ICR mouse assessed as effect on locomotor activity measured moved distance per 4 mins at 10 mg/kg, ip after 30 mins by open field test (reference value: 1124 121 cm); format: organism-based; set-up: dose 10 mg/kg, route intraperitoneal; conditions: in vivo
[18] = target: Sigma non-opioid intracellular receptor 1 (Rattus norvegicus) (UniProt Q9R0C9); assay: Positive allosteric modulation of Wistar rat sigma 1 receptor assessed as potentiation of PB-28 effect on electrically-stimulated vas deferens contraction at 10 uM preincubated for 10 mins followed by PB-28 addition
Sigma non-opioid intracellular receptor 1 (Rattus norvegicus), sequence (Q9R0C9 whole entry): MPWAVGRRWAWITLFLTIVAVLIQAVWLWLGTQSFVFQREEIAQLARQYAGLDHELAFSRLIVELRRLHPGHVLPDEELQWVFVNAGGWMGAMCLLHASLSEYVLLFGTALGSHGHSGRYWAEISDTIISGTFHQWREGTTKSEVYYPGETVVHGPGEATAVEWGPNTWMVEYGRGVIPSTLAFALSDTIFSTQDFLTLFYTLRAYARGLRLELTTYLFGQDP

[19] = target: Sigma non-opioid intracellular receptor 1 (Homo sapiens, UniProt Q99720); assay: Modulation of sigma 1 receptor (unknown origin) by radioligand displacement assay relative to control
Sigma non-opioid intracellular receptor 1, sequence (Q99720 whole entry): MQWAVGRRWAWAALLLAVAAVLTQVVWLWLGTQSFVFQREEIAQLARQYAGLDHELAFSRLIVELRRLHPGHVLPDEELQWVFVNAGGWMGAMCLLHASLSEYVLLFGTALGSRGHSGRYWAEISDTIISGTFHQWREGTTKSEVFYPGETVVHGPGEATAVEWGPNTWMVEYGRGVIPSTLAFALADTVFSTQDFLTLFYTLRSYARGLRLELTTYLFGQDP

[20] = target: Neurotensin receptor type 1 (Homo sapiens) (UniProt P30989); assay: Binding affinity to NTS1 receptor (unknown origin) at 10 uM by radioligand displacement assay relative to control
Neurotensin receptor type 1 (Homo sapiens), sequence (P30989 whole entry): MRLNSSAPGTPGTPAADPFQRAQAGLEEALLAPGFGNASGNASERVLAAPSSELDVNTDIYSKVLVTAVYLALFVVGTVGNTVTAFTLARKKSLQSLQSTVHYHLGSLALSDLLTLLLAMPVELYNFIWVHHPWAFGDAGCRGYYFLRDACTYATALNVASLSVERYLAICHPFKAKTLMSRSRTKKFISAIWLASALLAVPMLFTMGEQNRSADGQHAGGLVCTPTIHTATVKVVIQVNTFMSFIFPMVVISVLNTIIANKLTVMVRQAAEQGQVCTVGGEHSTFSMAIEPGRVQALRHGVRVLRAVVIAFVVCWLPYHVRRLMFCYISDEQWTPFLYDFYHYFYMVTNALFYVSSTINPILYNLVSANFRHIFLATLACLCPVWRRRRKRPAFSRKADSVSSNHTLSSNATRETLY

Homo sapiens [21] = species on record: Homo sapiens; assay: Binding affinity to GABA-gated chloride channel (unknown origin) at 10 uM by radioligand displacement assay relative to control
[22] = target: voltage-gated potassium channel (Homo sapiens, UniProt O43525+O43526+O95259+P16389+P17658+P22001+P22459+P22460+P48547+P51787+P56696+Q03721+Q09470+Q12809+Q14003+Q14721+Q16322+Q6PIU1+Q8NCM2+Q8TAE7+Q8TDN1+Q8TDN2+Q92953+Q96KK3+Q96L42+Q96PR1+Q96RP8+Q9BQ31+Q9H252+Q9H3M0+Q9NR82+Q9NS40+Q9NSA2+Q9NZV8+Q9UIX4+Q9UJ96+Q9UK17+Q9ULD8+Q9ULS6+Q9UQ05); assay: Binding affinity to voltage-gated potassium channel (unknown origin) at 10 uM by radioligand displacement assay relative to control; format: protein assay
Homo sapiens [23] = species on record: Homo sapiens; assay: Binding affinity to L-type calcium channel verapamil binding site (unknown origin) at 10 uM by radioligand displacement assay relative to control
[24] = target: 5-hydroxytryptamine receptor 3A (Homo sapiens) (UniProt P46098); assay: Binding affinity to human 5-HT3 receptor at 10 uM by radioligand displacement assay relative to control
5-hydroxytryptamine receptor 3A (Homo sapiens), sequence (P46098 whole entry): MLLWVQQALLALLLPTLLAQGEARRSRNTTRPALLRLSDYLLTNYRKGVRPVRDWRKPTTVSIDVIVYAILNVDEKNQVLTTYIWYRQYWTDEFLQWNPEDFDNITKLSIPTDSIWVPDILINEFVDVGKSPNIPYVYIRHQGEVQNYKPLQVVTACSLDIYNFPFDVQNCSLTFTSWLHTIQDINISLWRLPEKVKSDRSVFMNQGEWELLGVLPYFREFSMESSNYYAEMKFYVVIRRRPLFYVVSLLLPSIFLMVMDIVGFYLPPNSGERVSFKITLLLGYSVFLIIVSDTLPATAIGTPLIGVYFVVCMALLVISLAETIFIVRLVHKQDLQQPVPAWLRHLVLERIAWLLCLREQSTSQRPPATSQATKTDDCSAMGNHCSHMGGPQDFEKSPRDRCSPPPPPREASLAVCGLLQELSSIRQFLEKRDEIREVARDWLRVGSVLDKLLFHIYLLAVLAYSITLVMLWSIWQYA

[25] = target: 5-hydroxytryptamine receptor 2A (Homo sapiens) (UniProt P28223); assay: Binding affinity to human 5-HT2A receptor at 10 uM by radioligand displacement assay relative to control
Homo sapiens [26] = species on record: Homo sapiens; assay: Binding affinity to P2Y receptor (unknown origin) at 10 uM by radioligand displacement assay relative to control
[27] = target: Peroxisome proliferator-activated receptor gamma (Homo sapiens) (UniProt P37231); assay: Binding affinity to human PPARgamma receptor at 10 uM by radioligand displacement assay relative to control
[28] = target: Vasoactive intestinal polypeptide receptor 1 (Homo sapiens) (UniProt P32241); assay: Binding affinity to human VPAC1 receptor at 10 uM by radioligand displacement assay relative to control
[29] = target: Nociceptin receptor (Homo sapiens) (UniProt P41146); assay: Binding affinity to ORL1 receptor (unknown origin) at 10 uM by radioligand displacement assay relative to control
[30] = target: Delta-type opioid receptor (Homo sapiens) (UniProt P41143); assay: Binding affinity to delta opioid receptor (unknown origin) at 10 uM by radioligand displacement assay relative to control
[31] = target: Muscarinic acetylcholine receptor M3 (Homo sapiens) (UniProt P20309); assay: Binding affinity to human muscarinic M3 receptor at 10 uM by radioligand displacement assay relative to control
Muscarinic acetylcholine receptor M3 (Homo sapiens), sequence (P20309 whole entry, looked up): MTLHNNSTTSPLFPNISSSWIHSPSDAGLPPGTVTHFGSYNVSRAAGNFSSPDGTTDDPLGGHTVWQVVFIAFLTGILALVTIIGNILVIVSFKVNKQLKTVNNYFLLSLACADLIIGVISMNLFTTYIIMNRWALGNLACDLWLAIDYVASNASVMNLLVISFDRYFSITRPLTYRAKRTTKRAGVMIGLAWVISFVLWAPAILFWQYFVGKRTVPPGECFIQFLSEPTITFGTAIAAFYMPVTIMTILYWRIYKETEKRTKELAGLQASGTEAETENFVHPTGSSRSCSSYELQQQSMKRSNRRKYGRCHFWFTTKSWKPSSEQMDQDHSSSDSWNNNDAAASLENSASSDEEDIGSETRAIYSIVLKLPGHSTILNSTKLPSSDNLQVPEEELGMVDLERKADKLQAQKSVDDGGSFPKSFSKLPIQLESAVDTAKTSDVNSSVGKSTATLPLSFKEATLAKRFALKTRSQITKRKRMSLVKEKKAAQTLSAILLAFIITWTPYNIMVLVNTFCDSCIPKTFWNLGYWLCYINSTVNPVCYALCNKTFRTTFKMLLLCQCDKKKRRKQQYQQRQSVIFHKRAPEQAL

[32] = target: Muscarinic acetylcholine receptor M1 (Homo sapiens) (UniProt P11229); assay: Binding affinity to human muscarinic M1 receptor at 10 uM by radioligand displacement assay relative to control
[33] = target: Melanocortin receptor 4 (Homo sapiens) (UniProt P32245); assay: Binding affinity to human MC4 receptor at 10 uM by radioligand displacement assay relative to control
Melanocortin receptor 4 (Homo sapiens), sequence (P32245 whole entry): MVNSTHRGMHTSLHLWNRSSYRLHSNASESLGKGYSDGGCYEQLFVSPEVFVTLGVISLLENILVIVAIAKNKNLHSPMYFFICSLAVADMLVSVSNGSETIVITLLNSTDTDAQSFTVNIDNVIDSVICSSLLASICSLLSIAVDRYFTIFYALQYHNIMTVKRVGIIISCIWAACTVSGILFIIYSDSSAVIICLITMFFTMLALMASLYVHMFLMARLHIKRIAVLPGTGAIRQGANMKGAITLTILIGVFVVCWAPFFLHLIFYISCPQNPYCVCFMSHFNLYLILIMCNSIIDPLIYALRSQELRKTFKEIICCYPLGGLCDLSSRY

[34] = target: C-C chemokine receptor type 1 (Homo sapiens) (UniProt P32246); assay: Binding affinity to human CCR1 at 10 uM by radioligand displacement assay relative to control
C-C chemokine receptor type 1 (Homo sapiens), sequence (P32246 whole entry): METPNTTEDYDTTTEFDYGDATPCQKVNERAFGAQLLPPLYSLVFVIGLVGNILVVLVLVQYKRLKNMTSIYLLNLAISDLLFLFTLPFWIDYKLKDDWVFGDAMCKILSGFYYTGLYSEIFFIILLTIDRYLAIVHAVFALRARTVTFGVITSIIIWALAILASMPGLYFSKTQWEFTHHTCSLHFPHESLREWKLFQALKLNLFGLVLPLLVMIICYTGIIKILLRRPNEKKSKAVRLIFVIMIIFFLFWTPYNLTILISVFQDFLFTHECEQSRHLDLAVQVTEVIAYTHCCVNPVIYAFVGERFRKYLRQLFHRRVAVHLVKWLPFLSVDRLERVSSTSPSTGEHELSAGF

## C[C@H]1[C@@H](c2ccccc2)CC(=O)N1CC(N)=O
Homo sapiens [1]
  inhibition: -3%
[2]
  inhibition: 2%
[3]
  inhibition: -6%
Homo sapiens [4]
  inhibition: 13%
[5]
  inhibition: -3%
[6]
  inhibition: 5%
[7]
  inhibition: 9%
[8]
  inhibition: -3%
[9]
  inhibition: 1%
[10]
  inhibition: -5%
[11]
  inhibition: -4%
Mus musculus [12]
  ED50: 595 mg/kg
Mus musculus [13]
  Activity: 626 cm
Mus musculus [14]
  Activity: 559 cm
Mus musculus [15]
  Activity: 472 cm
Mus musculus [16]
  Activity: 640 cm
Mus musculus [17]
  Activity: 1026 cm
[18]
  Activity: inactive
[19]
  Activity: > 20%
[20]
  inhibition: -3%
Homo sapiens [21]
  inhibition: -3%
[22]
  inhibition at 10 µM: -2%
Homo sapiens [23]
  inhibition: -1%
[24]
  inhibition: -1%
[25]
  inhibition: 5%
Homo sapiens [26]
  inhibition: -4%
[27]
  inhibition: -9%
[28]
  inhibition: -2%
[29]
  inhibition: 4%
[30]
  inhibition: -4%
[31]
  inhibition: -7%
[32]
  inhibition: -4%
[33]
  inhibition: 4%
[34]
  inhibition: -5%
